Laboratory results published in PMC11036874, “In vitro characterization of [^125I]HY-3-24, a selective ligand for the dopamine D3 receptor” (Frontiers in Neuroscience, 2024).
“Also recorded” adds a separate entry of the source.

Key:
[1] = molecular target: T1, dopamine active transporter (Homo sapiens, UniProt Q01959); assay: PDSP binding screen; details: HCl salt
T1 construct: Psychoactive Drug Screening Program (PDSP)
Excerpt: (§1) The binding of HY-3-24 to various GPCRs was investigated through comprehensive screening by Psychoactive Drug Screening Program (PDSP) (Supplementary Table S1) ([Besnard et al., 2012]). These GPCRs included major neurotransmitter receptors family (e.g., dopamine, serotonin, histamine, opioid, muscarinic, adrenergic, sigma receptors, ɤ-amino-butyric acid type A, and benzodiazepine receptors) and transporters (e.g., dopamine, norepinephrine, and serotonin transporter).

serotonin 5-HT1D = serotonin 5-HT1D (Homo sapiens, UniProt P28221); assay: PDSP binding screen; details: HCl salt
Excerpt: as §1

human D3R [2] = molecular target: T2, human D3R (Homo sapiens, UniProt P35462); assay: β-arrestin recruitment assay for D3R; type: cell-based; set-up: expressed in transfected cells
Method: Chinese hamster ovary CHO-K1 cells (CHO-K1) which were over expressed human D3R were cultured in assaycomplete™ cell culture kit 107 (DiscoverX, Fremont, CA, United States). Cells were seeded at a density of 25,000 cells per well of 96-well plate, and incubated at 5% CO2, 37°C. After 46 h, HY-3-24 was (10^−5 to 10^−11) in phosphate-buffered saline (PBS) was added to the cells. The plates were incubated for 30 min at 5% CO2, 37°C for the agonist binding assay; for the antagonist assay, cells were treated with 30 nM (EC80) of dopamine and then the mixture was incubated for 90 min. PathHunter™ β-arrestin recruitment assay kit (DiscoverX, Fremont, CA, United States) was added to each well, and the plate was incubated for 80 min at RT under the dark condition. The chemiluminescent signal was measured on a PerkinElmer Enspire plate reader (PerkinElmer, Boston, MA, United States). Data were analyzed by Prism followed by non-linear regression.

sigma-1 = molecular target: T3, sigma-1 (Cavia porcellus, UniProt Q60492); assay: Sigma-1 binding assay with [3H]-(+)-pentazocine; details: guinea pig brain homogenates
T3 construct: from tissue; host or cells: guinea pig brain homogenates
Method: The preparation of protein homogenates and sigma binding assay were conducted as described previously ([Luedtke et al., 2000]). For sigma-1 binding assay, [^3H]-(+)-pentazocine (50 μL, ~50,000 cpm) and HY-3-24 (concentrations ranging from 10^−5 to 10^−11 M) were mixed, guinea pig brain homogenates (100 μg/100 μL) were added and the mixture was incubated at 5% CO2, 37°C for 90 min. The assay was terminated by adding cold buffer (10 mM Tris–HCl, 150 mM NaCl, pH 7.5), and the mixture was filtered htrough Whatman CF/C filters (Brandel Inc., Maryland, United States) which were soaked in 1% polyethyleneimine (PEI). The collected filter was washed three times using cold buffer; non-specific binding was determined in the presence of 10 μM of haloperidol. The collected filters were mixed with 3 mL of microscint™20 by and counted overnight (1 min/well) using a beta counter (MicroBeta^2®, PerkinElmer, United Kingdom). The data were analyzed using PRISM 9.

human D2R = molecular target: T4, human D2R (Homo sapiens, UniProt P14416); assay: D2R radioligand binding assay with [125I]IABN; details: human D2R transfected HEK293 cell membranes, mean ± SEM of three experiments
T4 construct: expressed in transfected cells; host or cells: HEK293
Method: (§2) The dopamine receptor binding assay was performed according to previous studies ([Luedtke et al., 2000]; [Vangveravong et al., 2006]; [Reilly et al., 2017]), and human D2R or D3R or D4 transfected HEK293 cells were used for dopamine receptor binding assay. The cells were grown in Dulbecco’s Modified Eagle Medium including 10% FBS, 0.1% Penn Strep, […] of geneticin (G418) for human D2R or D3R transfected HEK293 cells, and […] of puromycin for human D4 HEK293 cells at 5% CO2, 37°C. The cells were collected by centrifuge (6,000 × g, 10 min), and the supernatant was discarded. Cold homogenization buffer (50 mM Na Hepes, 0.1 mM EDTA, 1 mM DTT, pH 7.4) was added into the pellet and homogenized by a polytron (Brinkmann Instruments, Westbury, NY, United States), and centrifuged at 40,000 × g for 10 min. This process was repeated two more times to get final pellet, and the membranes were then resuspended with HB buffer including 5 mM MgCl2 and stored at −80°C until use.
(§3) HY-3-24 was prepared in 10^−5 to 10^−11 M concentration range with assay buffer (50 mM Tris–HCl, 150 mM NaCl, 10 mM EDTA, pH 7.5). […] The membrane was washed with cold buffer (three times), and collected filters were counted on a gamma counter (GMI, Minnesota, United States). The results were analyzed by nonlinear regression, and the data were reported mean ± SEM values by three independent experiments.

sigma-2 = molecular target: T5, sigma-2 (Rattus norvegicus, UniProt Q5U3Y7); assay: Sigma-2 binding assay with [125I]RHM4; details: [125I]RHM4, rat liver homogenates
T5 construct: rat liver homogenates (15 μg/100 μL); from tissue; host or cells: rat liver homogenates
Method: For sigma-2 binding assay, HY-3-24 prepared in 10^−5 to 10^−11 M concentration range was mixed with [^125I]RHM4 (50 μL,~200,000 cpm) and rat liver homogenates (15 μg/100 μL). The mixture was vortexed briefly and incubated at room temperature (RT) for 90 min. The [^125I]RHM4-bound membrane was collected through Whatman CF/C filters by 24-well harvester (Brandel Inc., Maryland, United States), and washed with 4 mL of cold buffer. The filters were counted on a gamma counter (PerkinElmer, Massachusetts, United States). Cold RHM4 was used for defining non-specific binding. The Ki value was obtained by PRISM 9.

human D3R [3] = molecular target: T2, human D3R; assay: D3R radioligand binding assay with [125I]IABN; set-up: expressed in transfected cells; host or cells: HEK293
Method: as §2
HY-3-24 was prepared in 10^−5 to 10^−11 M concentration range with assay buffer (50 mM Tris–HCl, 150 mM NaCl, 10 mM EDTA, pH 7.5). Membrane homogenates (5–15 μg) and [^125I]IABN (approximately 0.5 nM) was added into serial dilutions of the compound and incubated at 37°C, for 60 min. Total binding volume was 150 μL, and 20 μM of (+)-butaclamol was used to define non-specific binding. Cold buffer (10 mM Tris–HCl, 150 mM NaCl, pH 7.5) was added into the reaction tube to terminate binding assay, and mixture was quickly filtered through a Schleicher and Schuell No.32 filter (GE Heathcare Bio-Sciences, Pittsburgh, PA, United States). The membrane was washed with cold buffer (three times), and collected filters were counted on a gamma counter (GMI, Minnesota, United States). The results were analyzed by nonlinear regression, and the data were reported mean ± SEM values by three independent experiments.

human D4 = molecular target: T6, human D4 (Homo sapiens, UniProt P21917); assay: D4R radioligand binding assay with [125I]IABN; details: human D4 transfected HEK293 cell membranes, mean ± SEM of three experiments
T6 construct: expressed in transfected cells; host or cells: HEK293
Method: as §2, §3

[4] = [125I]IABN, human D3R transfected HEK293 cell membranes, mean ± SEM of three experiments

T2 sequence (P35462 whole entry): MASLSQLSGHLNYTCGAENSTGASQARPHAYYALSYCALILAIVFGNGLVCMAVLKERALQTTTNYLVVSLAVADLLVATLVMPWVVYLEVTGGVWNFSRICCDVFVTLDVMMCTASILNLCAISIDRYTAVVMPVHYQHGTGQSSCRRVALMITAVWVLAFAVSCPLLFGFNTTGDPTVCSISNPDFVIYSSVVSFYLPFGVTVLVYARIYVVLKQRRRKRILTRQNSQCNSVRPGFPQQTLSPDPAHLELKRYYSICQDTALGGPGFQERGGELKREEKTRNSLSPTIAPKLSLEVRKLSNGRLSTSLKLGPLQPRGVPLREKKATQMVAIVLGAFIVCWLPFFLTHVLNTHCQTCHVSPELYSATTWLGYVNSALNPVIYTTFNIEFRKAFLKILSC
T6 sequence (P21917 whole entry): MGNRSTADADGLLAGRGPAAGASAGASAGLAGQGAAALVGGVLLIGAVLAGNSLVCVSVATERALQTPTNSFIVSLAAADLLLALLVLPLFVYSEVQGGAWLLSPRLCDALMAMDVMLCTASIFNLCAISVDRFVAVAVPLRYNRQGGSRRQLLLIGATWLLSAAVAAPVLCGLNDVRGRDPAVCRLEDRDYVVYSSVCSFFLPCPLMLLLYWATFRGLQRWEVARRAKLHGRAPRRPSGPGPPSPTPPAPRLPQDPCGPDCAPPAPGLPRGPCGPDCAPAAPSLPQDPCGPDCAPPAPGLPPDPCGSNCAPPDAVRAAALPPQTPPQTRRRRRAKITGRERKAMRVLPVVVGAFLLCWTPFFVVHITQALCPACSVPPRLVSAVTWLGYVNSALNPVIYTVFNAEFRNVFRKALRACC
T5 sequence (Q5U3Y7 whole entry): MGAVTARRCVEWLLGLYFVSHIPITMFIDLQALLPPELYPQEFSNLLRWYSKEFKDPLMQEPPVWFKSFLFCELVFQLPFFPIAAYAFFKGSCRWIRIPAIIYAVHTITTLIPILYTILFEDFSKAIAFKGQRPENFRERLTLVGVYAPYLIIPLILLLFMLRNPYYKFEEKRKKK
T3 sequence (Q60492 whole entry): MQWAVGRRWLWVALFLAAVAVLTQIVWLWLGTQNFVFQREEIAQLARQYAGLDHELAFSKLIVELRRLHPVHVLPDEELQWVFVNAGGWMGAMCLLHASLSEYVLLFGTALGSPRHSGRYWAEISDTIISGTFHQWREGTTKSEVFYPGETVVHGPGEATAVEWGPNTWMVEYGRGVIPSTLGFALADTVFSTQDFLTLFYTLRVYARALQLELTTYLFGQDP
T4 sequence (P14416 whole entry): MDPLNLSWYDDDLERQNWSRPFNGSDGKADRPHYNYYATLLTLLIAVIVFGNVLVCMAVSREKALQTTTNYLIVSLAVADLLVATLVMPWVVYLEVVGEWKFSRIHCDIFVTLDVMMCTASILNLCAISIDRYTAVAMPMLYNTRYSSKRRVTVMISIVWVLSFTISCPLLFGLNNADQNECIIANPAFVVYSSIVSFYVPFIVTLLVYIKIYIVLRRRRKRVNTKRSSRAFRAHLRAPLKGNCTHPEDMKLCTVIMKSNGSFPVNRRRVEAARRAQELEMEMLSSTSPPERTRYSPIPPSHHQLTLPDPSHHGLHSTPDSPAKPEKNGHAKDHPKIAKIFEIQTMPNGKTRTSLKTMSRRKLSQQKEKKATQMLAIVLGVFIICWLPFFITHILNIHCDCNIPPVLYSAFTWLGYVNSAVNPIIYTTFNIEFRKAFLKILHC
serotonin 5-HT1D, sequence (P28221 whole entry): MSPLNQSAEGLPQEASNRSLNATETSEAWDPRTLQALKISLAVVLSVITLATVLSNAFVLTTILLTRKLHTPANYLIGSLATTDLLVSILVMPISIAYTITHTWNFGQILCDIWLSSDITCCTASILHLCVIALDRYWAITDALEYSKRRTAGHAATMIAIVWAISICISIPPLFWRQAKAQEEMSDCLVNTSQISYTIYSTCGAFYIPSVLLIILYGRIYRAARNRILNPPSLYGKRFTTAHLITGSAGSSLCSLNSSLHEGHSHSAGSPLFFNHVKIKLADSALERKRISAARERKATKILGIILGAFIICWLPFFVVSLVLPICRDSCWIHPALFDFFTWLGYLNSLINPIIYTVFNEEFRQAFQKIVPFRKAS
T1 sequence (Q01959 whole entry): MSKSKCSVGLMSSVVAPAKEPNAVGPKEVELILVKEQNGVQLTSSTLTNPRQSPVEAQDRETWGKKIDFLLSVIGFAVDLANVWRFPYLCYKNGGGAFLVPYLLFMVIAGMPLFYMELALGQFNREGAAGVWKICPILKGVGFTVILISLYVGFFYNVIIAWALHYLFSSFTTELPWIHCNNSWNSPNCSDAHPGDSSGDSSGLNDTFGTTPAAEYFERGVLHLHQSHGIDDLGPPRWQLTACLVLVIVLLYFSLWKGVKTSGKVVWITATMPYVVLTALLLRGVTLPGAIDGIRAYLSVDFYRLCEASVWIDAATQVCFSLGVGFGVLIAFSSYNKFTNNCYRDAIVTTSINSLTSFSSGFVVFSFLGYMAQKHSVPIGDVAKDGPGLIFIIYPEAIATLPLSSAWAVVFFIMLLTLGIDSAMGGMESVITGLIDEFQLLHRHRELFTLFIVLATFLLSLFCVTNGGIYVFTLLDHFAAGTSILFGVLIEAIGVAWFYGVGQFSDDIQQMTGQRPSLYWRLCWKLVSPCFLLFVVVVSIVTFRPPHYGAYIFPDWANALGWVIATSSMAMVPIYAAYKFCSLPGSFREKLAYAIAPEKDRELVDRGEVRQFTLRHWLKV

## CCN(CCCNC(=O)c1ccc(-c2ccncc2)cc1)CCNC(=O)c1cc(I)cc(OC)c1OC [HY-3-24, N-(2-(Ethyl(3-(4-(pyridin-4-yl)benzamido)propyl)amino)ethyl)-5-iodo-2,3-dimethoxybenzamide]
[1]
  Ki: 1130 nM
Serotonin 5-HT1D
  Ki: 1690 nM
Human D3R [2]; agonist mode, 10^-5 to 10^-11 M, human D3R CHO-K1 cells
  EC50 β-arrestin recruitment D3R: no β-arrestin recruitment; also recorded: N.A (not active)
Human D3R [2]; antagonist mode, vs 30 nM (EC80) dopamine, human D3R CHO-K1 cells
  IC50: 1.5 ± 0.58 nM
Human D3R [2]; β-arrestin recruitment assay
  functional mode at D3R: antagonist
sigma-1
  binding to sigma-1 receptors: did not bind
sigma-1; listed as HY-2-34
  binding to sigma-1 receptors: low affinity
Human D2R
  Ki: 86.7 ± 11.9 nM
sigma-2
  binding to sigma-2 receptors: did not bind
sigma-2; listed as HY-2-34
  binding to sigma-2 receptors: low affinity
Human D3R [3]; [4]
  Ki: 0.67 ± 0.11 nM
  Ki D3R: sub-nM affinity
Human D3R [3]; from Ki values, [125I]IABN
  selectivity for D3R vs. D2R: ~ 129 fold
Human D3R [3]; ratio of Ki D2R to Ki D3R
  D2/D3 ratio: 129
Human D4
  Ki: > 1000 nM
Human D4; listed as HY-2-34
  Ki D4R: negligible
